The text below walks through data of patent US9631001B2, “Peptide antagonists of the vasopressin-2 receptor” (COMMISSARIAT A L'ENERGIE ATOMIQUE ET AUX ENERGIES …, priority 2012, dated 2017).

The target of one assay is V2R (Homo sapiens, UniProt P30518). The following applies: vaptans, background; cited from earlier work.
Assay [1] addresses vasopressin V2 receptor subtype (V2R) (Homo sapiens, UniProt P30518). Briefly: 3H-AVP competition binding on V2R membranes. The following applies: for Ki: Ki (nM ± SEM), binding affinity of the ligands for V2R, 3H-AVP competition, mean ± SEM; for V2R inhibition, 3H-AVP binding (FIG. 15): compared with U-Da2a.
Method: Reaction mixtures contained 50 mM Tris-HCl, pH 7.4, 10 mM MgCl2 and 1 g/L BSA in a final volume of 100 μL. Plates were incubated for 3 h at room temperature. Binding reactions were stopped by filtration through a GF/C filter pre-soaked in 0.5% polyethyleneimine on a cell harvester ([sequence], Courtaboeuf, France) and plates were dried. […] A one-site inhibition mass action curve was fitted to inhibition binding data using Kaleidagraph (SYNERGY SOFTWARE, Reading, Pa., USA).

Bridges are numbered along the chain shown (N, C = ends). Where no end group is shown, it is not given here.

Turning to `Cc1nc2c([nH]1)-c1ccccc1N(C(=O)c1ccc(NC(=O)c3ccccc3-c3ccccc3)cc1)CC2` [Conivaptan], the V2/V1a selectivity index at V2R is 0.15. With `CCOc1ccc2c(c1)C1(CCC(OCCN3CCOCC3)CC1)C(=O)N2S(=O)(=O)c1ccc(C(=O)NC(C)(C)C)cc1OC` (stereo not shown) [Satavaptan], at V2R, the V2/V1a selectivity index is 112. “CNLPVKPGPCNGFFSAFYYSQKTNKCHSFTYGGCKGNANRFSTIEKCRRTCVG (disulfide 1-51, 10-34, 26-47) [U-Da2a-delta4 N-ter]” registered an inhibition constant Ki in assay [1] of 1.57 ± 1.2 nM. In the case of “DTx-E-R55 (LQHRTFCKLPAEPGPCKASIPAFYYNWAAKKCQLFHYGGCKGNANRFSTIEKCRRACVG; listed as Dendroaspis polylepis) [reference compound]”, in assay [1], the “V2R inhibition, 3H-AVP binding (FIG. 15)” value was “not able to block V2R”. With “Dendrotoxin-K [DTx-K, reference compound]”, in assay [1], the “V2R inhibition, 3H-AVP binding (FIG. 15)” value is recorded as “no V2R inhibition”. In assay [1], “RPKFCNLPVKPGPCNGFFSAFYYSQKTNKCHSFTYGGCKGNANRFSTIEKCRRTCVG (disulfide 5-55, 14-38, 30-51) [U-Da2a-S3K]” showed an inhibition constant (Ki) of 1.29 ± 0.34 nM. Same read-out and setting: the result for “SFCNLPVKPGPCNGFFSAFYYSQKTNKCHSFTYGGCKGNANRFSTIEKCRRTC (disulfide 3-53, 12-36, 28-49) [U-Da2a-delta2 N-ter/delta2 C-ter]” reads 3.23 ± 2.31 nM.

For orientation: Ki means the dissociation constant of the complex between target and ligand, obtained from inhibition or displacement. A lower Ki goes with higher affinity.
